For data set [1], the system named is CBP+/− mutant mice. The settings on record: cited from earlier work.
Data set [2] concerns rat mesencephalonic neurons. The settings on record: in the presence of the adenylate cyclase activator forskolin; cited from earlier work.
The subject of data set [3] is patients with PD. The following applies: cited from earlier work.
A short description of data set [4]: cardiovascular and respiratory function in anesthetized dogs. It counts as in vivo. The following applies: anesthetized Beagle dogs; 400, 800 and 1,200 mg/kg/day ascending doses, infusion through the jugular vein. The protocol: The effects of 3-(3,4-dimethoxy-phenyl)-3-(1-oxo-1,3-dihydro-isoindol-2-yl)-propionamide on cardiovascular and respiratory function are investigated in anesthetized dogs. Two groups of Beagle dogs (2/sex/group) are used. One group receives three doses of vehicle only and the other receives three ascending doses of 3-(3,4-dimethoxy-phenyl)-3-(1-oxo-1,3-dihydro-isoindol-2-yl)-propionamide (400, 800, and 1,200 mg/kg/day). In all cases, doses of 3-(3,4-dimethoxy-phenyl)-3-(1-oxo-1,3-dihydro-isoindol-2-yl)-propionamide or vehicle are successively administered via infusion through the jugular vein separated by intervals of at least 30 minutes.

For data set [5], the system named is TNF-α production following LPS-stimulation of human PBMC and human whole blood. Kind of data set: in vitro pharmacological activity profile, comparison with thalidomide (cytokine production). It counts as cell-based. The protocol:
The pharmacological properties of 3-(3,4-dimethoxy-phenyl)-3-(1-oxo-1,3-dihydro-isoindol-2-yl)-propionamide, including activity comparisons with thalidomide, are characterized in in vitro studies. Studies examine the effects of 3-(3,4-dimethoxy-phenyl)-3-(1-oxo-1,3-dihydro-isoindol-2-yl)-propionamide on the production of various cytokines. In addition, a safety pharmacology study of 3-(3,4-dimethoxy-phenyl)-3-(1-oxo-1,3-dihydro-isoindol-2-yl)-propionamide is conducted in dogs and the effects of the compound on ECG parameters are examined further as part of three repeat-dose toxicity studies in primates.
Inhibition of TNF-α production following LPS-stimulation of human PBMC and human whole blood by 3-(3,4-dimethoxy-phenyl)-3-(1-oxo-1,3-dihydro-isoindol-2-yl)-propionamide is investigated in vitro (Muller et al., Bioorg. Med. Chem. Lett. 9:1625-1630, 1999). The IC50's of 3-(3,4-dimethoxy-phenyl)-3-(1-oxo-1,3-dihydro-isoindol-2-yl)-propionamide for inhibiting production of TNF-α following LPS-stimulation of PBMC and human whole blood is measured.
The pharmacological effects of 3-(3,4-dimethoxy-phenyl)-3-(1-oxo-1,3-dihydro-isoindol-2-yl)-propionamide derive from its action as an inhibitor of cellular response to receptor-initiated trophic signals (e.g., IGF-1, VEGF, cyclooxygenase-2), and other activities.

Molecules are shown by their SMILES.

In the case of `COc1ccc([C@H]2CNC(=O)[C@H](Cc3cccc(C)c3)C2)cc1OC1CCCC1` [HT0712], the long-term memory defects result in data set [1] is “abolished the long-term memory defects”.
Turning to `CCCCOc1cc(CC2CNC(=O)N2)ccc1OC` (stereo not drawn) [Ro-20 1724], the uptake of dopamine result in data set [2] was “stimulate uptake of dopamine”.
`COc1ccc(C2CNC(=O)C2)cc1OC1CCCC1` (stereo not drawn) [Rolipram]: the long-term memory defects entry in data set [1] is given as “abolished the long-term memory defects”. In addition, the dose-limiting side effect entry in data set [3] (Phase II trials of PD) was “nausea”. The “deterioration of the therapeutic action of dopamine against Lisuride” value in data set [3] (double-blind trial versus placebo, patients with PD already under treatment, 3 mg per day) was “no significant deterioration”.
With `COc1ccc(C(CC(N)=O)N2Cc3ccccc3C2=O)cc1OC` (stereo not drawn) [3-(3,4-dimethoxy-phenyl)-3-(1-oxo-1,3-dihydro-isoindol-2-yl)-propionamide], the “cardiovascular and respiratory changes compared to the vehicle control group” value in data set [4] is recorded as “minimal at all doses”. The “effect on generation of inflammatory cytokines” value in data set [5] (in vitro) is listed as “suppresses the generation of inflammatory cytokines”. The “potency relative to thalidomide (times more potent)” value in data set [5] (in vitro studies, pharmacological activity profile similar to thalidomide) was 5 to 50 times.
With `COCCOc1cc(OCCOC)cc(-c2nc(C)cc3cc(OC)c(OC)cc23)c1` [SDZ-MNS 949], the uptake of dopamine result in data set [2] was “stimulate uptake of dopamine”.
